Drawing on publication PMC9196953 (Drug development research, 1999), this text covers Ki and rA1/hA2B for twelve compounds.

Where two headings read alike, the source gives them in different places.

The target in one assay is T1, rat A1 receptors (Rattus norvegicus, UniProt P25099).
T1 construct: to A1 receptors from rat cerebral cortical membranes; from tissue; host or cells: rat cerebral cortical membranes
T1 sequence (P25099 1-326): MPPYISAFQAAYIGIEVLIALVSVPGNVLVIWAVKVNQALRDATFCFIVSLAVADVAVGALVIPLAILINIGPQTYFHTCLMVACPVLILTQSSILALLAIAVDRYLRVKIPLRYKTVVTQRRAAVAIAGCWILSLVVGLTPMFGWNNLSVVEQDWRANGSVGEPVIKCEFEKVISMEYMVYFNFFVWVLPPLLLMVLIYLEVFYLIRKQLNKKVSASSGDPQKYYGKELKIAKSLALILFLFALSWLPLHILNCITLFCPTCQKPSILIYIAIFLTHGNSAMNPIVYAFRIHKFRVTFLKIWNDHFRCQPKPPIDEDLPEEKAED
Nature of the assay: Displacement of [3H]R-PIA binding to A1 receptors in rat brain membranes. Particulars: read-out: Ki rA1. Here is the method: (§1) All nonradioactive compounds were initially dissolved in DMSO and diluted with buffer to the final concentration, where the amount of DMSO never exceeded 2%. Incubations were terminated by rapid filtration over Whatman GF/B filters using a Brandell cell harvester. The tubes were rinsed three times with 3 mL buffer each.
(§2) At least six different concentrations of competitor, spanning 3 orders of magnitude adjusted appropriately for the IC50 value of each compound, were used. IC50 values, calculated with the nonlinear regression method implemented in Graph-Pad Prism (San Diego, CA) were converted to apparent Ki values as described by [Linden [1982]]. Hill coefficients of the tested compounds were in the range of 0.8–1.1.
(§3) At A2B receptors, two radioligand binding assays (Table 1) were used. Ki values of xanthine derivatives were determined in displacement of binding of the non-selective radioligands […], 8 (4-(2-[7-amino-2-{furyl}{1,2,4}triazolo{2,3-a}{1,3,5}tr nzyl)-8-phenyloxyacetate-1-propyl-xanthine), at human A2B receptors expressed in HEK-293 cell membranes [[Linden and Jacobson, 1998]]. In order to evaluate selectivity, selected derivatives were subjected to standard binding assays at A1, A2A, and A3 receptors. The initial screening utilized rat brain A1/A2A receptors (with radioligands [^3H]R-PIA and [^3H]CGS-21680), and selected compounds were examined at the recombinant human subtypes (Table 1), using [^3H]CPX ([^3H]8-cyclopentyl-1,3-dipropylxanthine) and ^125I-ZM 241385, ^125I-4-(2-[7-amino-2-[2-furyl][1,2,4]triazolo[2,3-a][1,3,5]triazin-5-yl-amino]ethyl)phenol) [[Palmer et al., 1996]].

The target in another assay is T2, human A2B receptors (Homo sapiens, UniProt P29275).
T2 construct: expressed in transfected cells; host or cells: HEK-293
T2 sequence (P29275 1-332): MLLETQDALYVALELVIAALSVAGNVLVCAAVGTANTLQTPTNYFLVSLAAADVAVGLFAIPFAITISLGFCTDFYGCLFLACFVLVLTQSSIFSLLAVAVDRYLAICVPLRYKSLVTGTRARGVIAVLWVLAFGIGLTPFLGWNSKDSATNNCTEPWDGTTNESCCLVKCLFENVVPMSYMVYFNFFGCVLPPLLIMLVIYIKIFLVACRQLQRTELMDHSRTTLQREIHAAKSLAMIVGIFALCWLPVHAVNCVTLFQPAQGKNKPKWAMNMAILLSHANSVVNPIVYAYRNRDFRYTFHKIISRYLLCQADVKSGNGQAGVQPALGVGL
The experiment in a line: Binding at human A2B receptors expressed in HEK-293 cells vs [3H]ZM241385. Particulars: for rA1/hA2B: ratio of Ki rat A1 to Ki human A2B. Here is the method: The plasmid was amplified in competent JM109 cells and plasmid DNA isolated using Wizard Megaprep columns (Promega Corp., Madison, WI).
Colonies were selected by growth of cells in 0.6 mg/mL G418. Transfected cells were maintained in DMEM supplemented with Hams F12 nutrient mixture (1/1), 10% newborn calf serum, 2 mM glutamine, and containing 50 IU/mL penicillin, 50 μg/mL streptomycin, and 0.2 mg/mL Geneticin (G418, Boehringer Mannheim, Indianapolis, IN).
Confluent monolayers of HEK-A2B cells were washed with PBS followed by ice-cold Buffer A (10 mM HEPES, 10 mM EDTA, pH 7.4) with protease inhibitors ([…] benzamidine, […], and […] of each aprotinin, pepstatin, and leupeptin). The cells were homogenized in a Polytron (Brinkmann) for 20 sec, centrifuged at 30,000g, and the pellets washed twice with buffer HE (10 mM HEPES, 1 mM EDTA, pH 7.4 with protease inhibitors). The final pellet was resuspended in buffer HE, supplemented with 10% sucrose and frozen in aliquots at −80°C. For binding assays, membranes were thawed and diluted 5–10-fold with HE to a final protein concentration of approximately 1 mg/mL. […] After incubating for 20 min at room temperature, 50 mL of 10 mg/mL Na-metabisulfite in water was added the quench the reaction. The reaction products were applied to a C18 HPLC column using 4 mM phosphate, pH 6.0/methanol. […] The incubation time was 3 h at 21°C. […] Membranes were filtered on Whatman GF/C filters using a Brandell cell harvester (Gaithersburg, MD) and washed three times over 15–20 sec with ice-cold buffer (10 mM Tris, 1 mM MgCl2, pH 7.4). […] Data from replicate experiments are tabulated as means ± SEM.
At A2B receptors, two radioligand binding assays (Table 1) were used. […] In order to evaluate selectivity, selected derivatives were subjected to standard binding assays at A1, A2A, and A3 receptors.

Another assay concerns the target T3, human A3 receptors (Homo sapiens, UniProt P0DMS8).
T3 construct: expressed in transfected cells; host or cells: HEK-293
T3 sequence (P0DMS8 1-318): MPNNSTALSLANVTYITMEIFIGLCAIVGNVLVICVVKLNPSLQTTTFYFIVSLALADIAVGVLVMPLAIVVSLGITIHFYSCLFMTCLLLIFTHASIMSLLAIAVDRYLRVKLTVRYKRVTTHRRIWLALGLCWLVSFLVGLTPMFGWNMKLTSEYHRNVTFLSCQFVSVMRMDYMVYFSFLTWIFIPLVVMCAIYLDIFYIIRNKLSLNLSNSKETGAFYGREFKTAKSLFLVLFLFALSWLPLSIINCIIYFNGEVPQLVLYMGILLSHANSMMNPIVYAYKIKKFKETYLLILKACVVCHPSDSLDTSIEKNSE
The experiment in a line: Displacement of [125I]AB-MECA binding at human A3 receptors expressed in HEK cells. Particulars: read-out: Ki hA3. On the procedure:
as §3

The target of another assay is T4, rat A2A receptors (Rattus norvegicus, UniProt P30543).
T4 construct: to A2A receptors from rat striatal membranes; from tissue; host or cells: rat striatal membranes
The experiment in a line: Displacement of [3H]CGS 21680 binding to A2A receptors in rat striatal membranes. Particulars: read-out: Ki rA2A. On the procedure:
as §1, §2, §3

Setting [1] is: HEK-293 cells, vs [3H]ZM241385, read-out: Ki hA2B.
The mark [2] stands for this setting: rounded values given in text, read-out: Ki at human A2B receptors.

T4 sequence (P30543 whole entry): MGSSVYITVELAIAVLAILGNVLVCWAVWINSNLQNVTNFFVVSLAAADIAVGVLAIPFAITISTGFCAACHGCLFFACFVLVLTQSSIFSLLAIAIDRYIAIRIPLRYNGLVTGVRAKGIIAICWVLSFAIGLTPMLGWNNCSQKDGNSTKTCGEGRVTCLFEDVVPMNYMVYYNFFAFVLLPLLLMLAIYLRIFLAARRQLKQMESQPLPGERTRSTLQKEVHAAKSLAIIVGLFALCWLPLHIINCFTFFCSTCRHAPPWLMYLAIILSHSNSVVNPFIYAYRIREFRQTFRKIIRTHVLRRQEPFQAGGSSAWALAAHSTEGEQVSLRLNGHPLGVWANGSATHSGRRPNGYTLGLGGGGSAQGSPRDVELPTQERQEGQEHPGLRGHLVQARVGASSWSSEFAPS

For `CCCn1c(=O)c2[nH]c(-c3ccc(OCC(=O)NN4C(=O)C=C(c5ccccc5)C4=O)cc3)nc2n(CCC)c1=O` [Compound 16, 8-[4-[(Carboxymethyl)oxy]phenyl]-1,3-di-(n-propyl)xanthine N,N-[(2-Phenyl)maleyl]hydrazide], the Ki on rat A1 receptors came out at 225 ± 76 nM; on human A2B receptors (setting [1]) it was 66.7 ± 37 nM; on human A2B receptors (setting [2]), 67 nM; on human A3 receptors it was 748 ± 234 nM; on rat A2A receptors, 1540 nM. In addition, the rA1/hA2B on human A2B receptors worked out at 3.4.
Consider `CCCn1c(=O)c2[nH]c(-c3ccc(OCC(=O)NNC(=O)C4CC=CCC4C(=O)O)cc3)nc2n(CCC)c1=O` (stereo not drawn) [Compound 18a, 8-[4-[(Carboxymethyl)oxy]phenyl]-1,3-di-(n-propyl)xanthine N-[2-((1-Carboxy)-cis-4-cyclohexene)-carbonyl]hydrazide], for which the Ki turned out to be 134 ± 19 nM on rat A1 receptors, 51 ± 7 nM on human A2B receptors (setting [1]), 1060 nM on human A3 receptors and 813 ± 299 nM on rat A2A receptors. Besides, at human A2B receptors, the rA1/hA2B came to 2.6.
With `CCCn1c(=O)c2[nH]c(-c3ccc(OCC(=O)NNC(=O)[C@H](CCC(=O)O)NC(=O)C(F)(F)F)cc3)nc2n(CCC)c1=O` [Compound 24a, 8-[4-[(Carboxymethyl)oxy]phenyl]-1,3-di-(n-propyl)xanthine N-[(4-Carboxy-(2S)-Trifluoroacetamido)-n-butanoyl]hydrazide], the inhibition constant Ki is 70.8 ± 30.9 nM at rat A1 receptors; 24.8 ± 7.3 nM at human A2B receptors (setting [1]); 25 nM on human A2B receptors (setting [2]); 430 ± 44 nM at human A3 receptors; 872 ± 412 nM at rat A2A receptors. Also, the rA1/hA2B at human A2B receptors was 2.9.
With `CCCn1c(=O)c2[nH]c(-c3ccc(OCC(=O)NN4C(=O)CC(O)CC4=O)cc3)nc2n(CCC)c1=O` [Compound 23, 8-[4-[(Carboxymethyl)oxy]phenyl]-1,3-di-(n-propyl)xanthine N,N-(3-Hydroxy)glutarylhydrazide], the Ki was found to be 41.2 ± 16.6 nM on rat A1 receptors, 25.7 ± 5.5 nM on human A2B receptors (setting [1]), 290 ± 88 nM on human A3 receptors and 164 ± 61 nM on rat A2A receptors. In addition, the rA1/hA2B on human A2B receptors was found to be 1.6.
The corresponding values for `CCCn1c(=O)c2[nH]c(-c3ccc(OCC(=O)NN4C(=O)CCC(c5ccccc5)C4=O)cc3)nc2n(CCC)c1=O` (stereo not drawn) [Compound 12, 8-[4-[(Carboxymethyl)oxy]phenyl]-1,3-di-(n-propyl)xanthine N,N-[(2-Phenyl)glutaryl]hydrazide] are 3.87 ± 1.2 nM, 3.86 ± 0.7 nM, 151 ± 99 nM, 21.4 ± 6.1 nM and 1.0.
In the case of `CCCn1c(=O)c2[nH]c(-c3ccc(OCC(=O)NN4C(=O)CCCC4=O)cc3)nc2n(CCC)c1=O` [Compound 22, 8-[4-[(Carboxymethyl)oxy]phenyl]-1,3-di-(n-propyl)xanthine N,N-Glutarylhydrazide], the Ki was determined as 14 ± 2.3 nM at rat A1 receptors, 22 ± 5.5 nM on human A2B receptors (setting [1]), 200 ± 45 nM on human A3 receptors and 135 ± 39 nM on rat A2A receptors. Also, the rA1/hA2B on human A2B receptors worked out at 0.6.
Turning to `CCCn1c(=O)c2nc(-c3ccc(OCC(=O)NN)cc3)[nH]c2n(CCC)c1=O` [Compound 4c], the Ki at rat A1 receptors came to 16 ± 0.5 nM; at human A3 receptors, 498 ± 139 nM; at rat A2A receptors, 63.8 ± 21.3 nM.
On to `CCCn1c(=O)c2[nH]c(-c3ccc(OCC(=O)NN4C(=O)C(c5ccccc5)=C(c5ccccc5)C4=O)cc3)nc2n(CCC)c1=O` [Compound 17, 8-[4-[(Carboxymethyl)oxy]phenyl]-1,3-di-(n-propyl)xanthine N,N-[(1,2-Diphenyl)maleyl]hydrazide], for which the inhibition constant Ki at rat A1 receptors turned out to be 95.8 ± 25.1 nM; on human A2B receptors (setting [1]), 27.9 ± 8.5 nM; at human A2B receptors (setting [2]), 28 nM; at human A3 receptors, 3450 nM; on rat A2A receptors, 2100 nM. Also, the rA1/hA2B on human A2B receptors worked out at 3.4.
For `CCCn1c(=O)c2[nH]c(-c3ccc(OCC(=O)NNC(=O)[C@H](CC(C)C)NC(=O)OC(C)(C)C)cc3)nc2n(CCC)c1=O` [Compound 25, 8-[4-[(Carboxymethyl)oxy]phenyl]-1,3-di-(n-propyl)xanthine N-(N-tert-Butoxycarbonyl-L-leucinyl)-hydrazide], the inhibition constant Ki at rat A1 receptors was found to be 197 ± 67 nM; at human A2B receptors (setting [1]), 47.5 ± 2.5 nM; at human A2B receptors (setting [2]), 48 nM; on human A3 receptors, 195 ± 84 nM; at rat A2A receptors, 2750 nM. The rA1/hA2B at human A2B receptors worked out at 4.1.
For `CCCn1c(=O)c2[nH]c(-c3ccc(OCC(=O)NN4C(=O)C5=C(CCCC5)C4=O)cc3)nc2n(CCC)c1=O` [Compound 20b, 8-[4-[(Carboxymethyl)oxy]phenyl]-1,3-di-(n-propyl)xanthine N,N-(3,4,5,6-Tetrahydrophthaloyl)-hydrazide], the Ki worked out at 61.9 ± 11.3 nM at rat A1 receptors, 35.8 ± 0.7 nM at human A2B receptors (setting [1]), 245 ± 45 nM on human A3 receptors and 415 ± 157 nM at rat A2A receptors. Moreover, the rA1/hA2B at human A2B receptors turned out to be 1.7.
The corresponding values for `CCCn1c(=O)c2[nH]c(-c3ccc(OCC(=O)NN4C(=O)C=C(C)C4=O)cc3)nc2n(CCC)c1=O` [Compound 13, 8-[4-[(Carboxymethyl)oxy]phenyl]-1,3-di-(n-propyl)xanthine N,N-Citraconylhydrazide] are 203 ± 41 nM, 144 ± 11 nM, 551 ± 106 nM, 1230 nM and 1.4.
Take `CCCn1c(=O)c2[nH]c(-c3ccc(OCC(=O)NN4C(=O)C[C@H](NC(=O)C(F)(F)F)C4=O)cc3)nc2n(CCC)c1=O` [Compound 11, 8-[4-[(Carboxymethyl)oxy]phenyl]-1,3-di-(n-propyl)xanthine N,N-[((2S)-Trifluoroacetamido)-succinyl]hydrazide]: the Ki at rat A1 receptors was determined as 74.3 ± 6.6 nM; on human A2B receptors (setting [1]) it was 30.2 ± 0.5 nM; at human A2B receptors (setting [2]) it was 30 nM; on human A3 receptors, 1560 nM; at rat A2A receptors, 139 ± 32 nM. The rA1/hA2B at human A2B receptors is reported as 2.5.
